Reference: PubChem BioAssay AID463204 (Broad Institute, 2010)
Calls of active or inactive are those of the source.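 How the source made its calls: active means AC50 no more than ten times the top concentration tested, that is within one log above it; inconclusive means flat curve fit with activity between 30% and 70%, or invalid poor fit; inactive means AC50 beyond ten times the top tested dose.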

The compounds below were run on S. cerevisiae Mot1-301 ts growth rescue, BacTiter-Glo ATP luminescence (assay: growth rescue of Mot1-301 ts yeast, confirmation, SUMOylation pathway inhibitor project, whole organism, S. cerevisiae, Mot1-301 ts mutant, luminescence, dose retest (AID 463204);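 further: growth at restrictive 38.5 degrees C of Mot1-301 OY566 strain; actives raise luminescence by restoring growth of the ts mutant at high temperature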).
For Cc1nn(C)c(C)c1/C=N/NC(=O)C(C)(C)Oc1ccc(Cl)cc1, the AC50 was > 42 µM (inactive).
Work on Cc1cccc2nc(COc3ccc4ccccc4c3Br)cn12 yielded an AC50 of 11.9 µM.
CCOCCCNCc1ccc(OCc2ccc(F)cc2)c(OC)c1 was tested, and the AC50 was > 42 µM (inactive).
For COc1ccc(C)cc1S(=O)(=O)N1CCC(C(=O)NCCc2ccccc2)CC1, the AC50 was > 42 µM (inactive).
In the case of Cc1onc(-c2ccccc2)c1C(=O)N/N=C/C=C/c1ccccc1, the AC50 is reported as > 42 µM (inactive).
With COc1nc(OC)nc(N2CCC(C(=O)NC3CCCCCC3)CC2)n1 the AC50 was > 42 µM (inactive).
Cc1ccc(C)c(C(C)NC(=O)c2ccncc2)c1 (stereo not drawn) was tested, and the AC50 was > 42 µM (inactive).
With CNS(=O)(=O)c1cccc(C(=O)NCC2(N3CCCCC3)CCCCC2)c1 the AC50 was 39.2 µM.
In the case of COc1ccccc1NC(=O)c1nn(C)cc1Br, the AC50 is reported as > 42 µM (inactive).
O=C(c1cc2c(ccc3ccccc32)oc1=O)N1CCCC1 was tested, and the AC50 was > 42 µM (inactive).
CCOc1ccc(NC(=O)CNc2ccc(C)cc2Cl)cc1 was tested, and the AC50 was > 42 µM (inactive).
In the case of C[C@H]1O[C@H]1P(=O)(O)O, the AC50 is reported as > 42 µM (inactive).
CC[C@H]1CCCCc2ccccc2[C@@H](C(=O)C[C@@H](O)CC(C)=O)OC1=O showed an AC50 of 14.2 µM.
For O=C(COc1ccc([N+](=O)[O-])cc1)Nc1ccc(C(=O)NCc2cccnc2)cc1, the AC50 was > 42 µM (inactive).
In the case of O=C(O)c1cc(Oc2ccc(C(F)(F)F)cc2Cl)ccc1[N+](=O)[O-], the AC50 is reported as > 42 µM (inactive).
With CC/C(=N\Nc1ccc([N+](=O)[O-])cc1)c1ccccc1 the AC50 was > 42 µM (inactive).
In the case of COc1ccc(S(=O)(=O)NC(C)C(=O)NCc2ccccn2)cc1Cl (stereo not drawn), the AC50 is reported as > 42 µM (inactive).
With Cc1cc(C)c2nc(-c3cccnc3)cc(C(=O)Nc3ccc(S(=O)(=O)Nc4onc(C)c4C)cc3)c2c1 the AC50 was > 42 µM (inactive).
For COC(=O)c1ccncc1C(=O)Nc1ccc(Oc2ncc(C(F)(F)F)cc2Cl)cc1, the AC50 was > 42 µM (inactive).
With CCOc1cc(C(N)=O)cc(Cl)c1OCc1ccccc1 the AC50 was > 42 µM (inactive).
With CCN(CC)S(=O)(=O)c1ccc(C(=O)NCCc2cc3c(OC)ccc(OC)c3[nH]c2=O)cc1 the AC50 was > 42 µM (inactive).
COc1cc(C(c2c(C)[nH][nH]c2=O)c2c(C)[nH][nH]c2=O)cc(OC)c1OC was tested, and the AC50 was > 42 µM (inactive).
O=C(NCCCN1CCN(c2ccccc2F)CC1)Nc1ccccc1[N+](=O)[O-] was tested, and the AC50 was > 42 µM (inactive).
With COc1ccc(NC(=O)C2CCCN(C(=O)Nc3cccc(OC)c3)C2)cc1 (stereo not drawn) the AC50 was > 42 µM (inactive).
O=C(CSc1cccc2cccnc12)Nc1cc(C(=O)O)cc(C(=O)O)c1 was tested, and the AC50 was > 42 µM (inactive).
In the case of O=C(Nc1nc(-c2ccccn2)cs1)c1ccc2c(c1)OCCO2, the AC50 is reported as > 42 µM (inactive).
CN(C)c1ccc(CN(Cc2ccco2)C(=O)c2ccco2)cc1 was tested, and the AC50 was > 42 µM (inactive).
For CC(C)=CC(=O)N1CCCC(N2CCN(c3ccc(F)cc3)CC2)C1 (stereo not drawn), the AC50 was > 42 µM (inactive).
In the case of COc1ccc(-c2nnc(SCC(C)C)o2)cc1, the AC50 is reported as 31.1 µM.
For CCOC(=O)c1oc2ccccc2c1COC(=O)CNC(=O)c1cccc(C)c1, the AC50 was > 42 µM (inactive).
In the case of Nc1cc(=O)[nH]c(=O)n1CCc1ccccc1, the AC50 is reported as > 42 µM (inactive).
With O=C1COc2ccc(C(=O)COC(=O)c3ncc(Cl)c(Cl)c3Cl)cc2N1 the AC50 was > 42 µM (inactive).
In the case of Cc1cccn2c(=O)c3cc(C(=O)NCCc4ccccc4)sc3nc12, the AC50 is reported as > 42 µM (inactive).
Cn1c(SCC(=O)N/N=C/c2ccc([N+](=O)[O-])s2)nnc1-c1ccc(Cl)cc1 showed an AC50 of 10.2 µM.
With Cc1nc2sc(C(c3ccco3)N3CCOCC3)c(O)n2n1 (stereo not drawn) the AC50 was > 42 µM (inactive).
O=C(CSc1nc2ncccc2[nH]1)NC1CCCCC1 was tested, and the AC50 was > 42 µM (inactive).
With O=C(Nc1cc(F)ccc1F)C1CCCO1 (stereo not drawn) the AC50 was > 42 µM (inactive).
Work on CC1=CC(C)(C)N2C(=O)C3(NCCc4c3[nH]c3ccccc43)c3cc(C)cc1c32 (stereo not drawn) yielded an AC50 of 5.51 µM.
With O=C(O)CNS(=O)(=O)Cc1ccccc1 the AC50 was > 42 µM (inactive).
COc1ccc(/C=N/NC(=O)CCC(=O)Nc2ccccc2)cc1OC was tested, and the AC50 was > 42 µM (inactive).
With O=C(NCc1ccccc1)c1cccc(COc2ccc(Cl)cc2)c1 the AC50 was > 42 µM (inactive).
CSc1cc(C)c(OCC(=O)Nc2c(C)nn(C)c2C)c(C)c1 was tested, and the AC50 was > 42 µM (inactive).
In the case of O=C1NC2(CCCCO2)CO1 (stereo not drawn), the AC50 is reported as > 42 µM (inactive).
For COc1ccc(N2CC(C(=O)N3CCc4ccccc43)CC2=O)cc1 (stereo not drawn), the AC50 was > 42 µM (inactive).
For COc1ccc(C2CC(c3cccs3)=NN2C(=O)c2ccccc2)cc1OC (stereo not drawn), the AC50 was > 42 µM (inactive).
In the case of O=C(CSc1nnc(-c2ccc(Br)cc2)o1)Nc1cccc2ccccc12, the AC50 is reported as > 42 µM (inactive).
CC(C)CCNC(=O)Nc1ccc2c(c1)N(C)C(=O)CS2 was tested, and the AC50 was > 42 µM (inactive).
For CSc1ccccc1NC(=O)COc1nsnc1N1CCOCC1, the AC50 was > 42 µM (inactive).
For Cc1ccc(CNC(=O)CCn2cc(-c3ccc(C)cc3)nc2CCN)cc1, the AC50 was > 42 µM (inactive).
For CN(C/C=C/c1ccccc1[N+](=O)[O-])Cc1ccccc1, the AC50 was > 42 µM (inactive).
S=C(NCCc1ccccc1)Nc1ccccc1Cl was tested, and the AC50 was > 42 µM (inactive).
With COc1ccc(-c2cc(C#N)nc(N3CCN(c4ccccc4)CC3)n2)cc1 the AC50 was > 42 µM (inactive).
With CC(C)n1c(CN(C)c2ccccc2)nc2ccccc21 the AC50 was > 42 µM (inactive).
In the case of CC(C(=O)N1CCN(C(=O)c2ccco2)CC1)n1sc2ccccc2c1=O (stereo not drawn), the AC50 is reported as > 42 µM (inactive).
In the case of CCCCNC(=O)C1C2C=CC3(CN(Cc4ccc(C)cc4)C(=O)C13)O2 (stereo not drawn), the AC50 is reported as > 42 µM (inactive).
COc1ccc(C(=O)Sc2ccc(Cl)cc2)cc1OC was tested, and the AC50 was > 42 µM (inactive).
Cc1ccc(Oc2ccc(OCC(=O)Nc3ccncc3)cc2)cc1 was tested, and the AC50 was 23.5 µM.
For C[C@H]1CN=C(Nc2ccccc2)N1CCC1CCCC1, the AC50 was > 42 µM (inactive).
With Cc1cccc(C)c1NS(=O)(=O)c1ccc(OCCNS(C)(=O)=O)cc1 the AC50 was > 42 µM (inactive).
O=C(/C=C/c1ccc(F)cc1)NCC1(c2ccccc2)CCOCC1 was tested, and the AC50 was > 42 µM (inactive).
In the case of N#CC1=C(SCC(N)=O)NC(=O)CC1c1ccccc1Cl (stereo not drawn), the AC50 is reported as 28.4 µM.
With c1ccc(-c2nc(NCc3ccco3)c3ccccc3n2)nc1 the AC50 was > 42 µM (inactive).
O=c1cc(COc2ncnc3ccccc23)nc2sccn12 was tested, and the AC50 was > 42 µM (inactive).
With CCN(CC)/C(=N\S(=O)(=O)c1ccc(F)cc1)c1ccccc1 the AC50 was > 21 µM (inactive).
With COc1ccc(/C=C/C(=O)NC(=S)Nc2ccccn2)cc1 the AC50 was > 42 µM (inactive).
In the case of O=C(C1CCC(CNc2c(N3CCCCC3)c(=O)c2=O)CC1)N1CCN(C2CCCCC2)CC1 (stereo not drawn), the AC50 is reported as > 42 µM (inactive).
In the case of COc1ccc(OCCC(=O)c2ccc(OC)cc2)cc1, the AC50 is reported as > 42 µM (inactive).
In the case of O=Cc1cn(Cc2ccccc2F)c2ccccc12, the AC50 is reported as > 42 µM (inactive).
CC(OC(=O)c1cnccn1)C(=O)c1ccccc1 (stereo not drawn) was tested, and the AC50 was > 42 µM (inactive).
Cc1ccc2nc(NC(=O)CNS(=O)(=O)c3ccc(Br)s3)sc2c1 was tested, and the AC50 was > 42 µM (inactive).
With CN(C)CCNC(=O)c1scc2c1CCCC2 the AC50 was 29.2 µM.
In the case of O=C(COc1ncnc2c(Cl)cc(Cl)cc12)NCCC1=CCCCC1, the AC50 is reported as > 42 µM (inactive).
With Cc1cc(C)n(C(=O)CNC(=O)c2ccc3c(c2)OCCO3)n1 the AC50 was > 42 µM (inactive).
In the case of Cc1cc(C)c(NC(=O)CNC(=O)c2cc([N+](=O)[O-])ccc2N2CCOCC2)c(C)c1, the AC50 is reported as > 42 µM (inactive).
In the case of COc1cc(C)c(Cl)c(C)c1S(=O)(=O)NCc1ccc2c(c1)OCO2, the AC50 is reported as > 42 µM (inactive).
For CC(C)CC(c1nnnn1C1CCCCC1)N1CCN(C(=O)c2ccco2)CC1 (stereo not drawn), the AC50 was > 42 µM (inactive).
CCCNc1nc2ccccc2c(=O)[nH]1 was tested, and the AC50 was > 42 µM (inactive).
In the case of CC(C)(C)c1ccc(-c2nc(C=O)c3ccccn23)cc1, the AC50 is reported as > 42 µM (inactive).
In the case of COc1ccc(C2C3=C(CC(C)(C)CC3=O)Nc3n[nH]c(C)c32)cc1 (stereo not drawn), the AC50 is reported as > 42 µM (inactive).
CCN(CC)c1ccc(C=C2C(=O)OC(c3ccccc3)OC2=O)cc1 (stereo not drawn) was tested, and the AC50 was > 42 µM (inactive).
In the case of Cc1nn(C)c(Cl)c1CN1CCN(CCC(C)C)C(CCO)C1 (stereo not drawn), the AC50 is reported as > 42 µM (inactive).
With CCOc1ccc(-c2nnc(SCC(=O)N3CCCC3)o2)cc1 the AC50 was > 42 µM (inactive).
With COC(=O)c1sccc1NC(=O)CC1C(=O)NCCN1C(=O)Nc1ccc(F)cc1F (stereo not drawn) the AC50 was > 42 µM (inactive).
With O=S(=O)(Nc1ccc(-c2nc3cccnc3s2)cc1)c1cc(F)ccc1F the AC50 was > 21 µM (inactive).
Cc1ccc(S(=O)(=O)NN2C(=O)c3ccccc3NC2c2ccccc2F)cc1 (stereo not drawn) was tested, and the AC50 was > 42 µM (inactive).
For COC(=O)c1ccc(NC(=O)CCN2CCN(c3ccccc3)CC2)cc1, the AC50 was > 42 µM (inactive).
N#Cc1cc2c(nc1SCc1cccnc1)CCC2 was tested, and the AC50 was > 42 µM (inactive).
CCOC(=O)c1ccc(NC(=O)NCc2ccncc2)cc1 was tested, and the AC50 was > 42 µM (inactive).
In the case of Clc1cc(Br)ccc1OCCOCCN1CCOCC1, the AC50 is reported as > 42 µM (inactive).
CCCS(=O)(=O)N1CCC(C(=O)N2CCc3ccccc3C2)CC1 was tested, and the AC50 was > 42 µM (inactive).
In the case of Cc1c(NP(=O)(c2ccc(Br)cc2)c2ccc(Br)cc2)c(=O)n(-c2ccccc2)n1C, the AC50 is reported as > 42 µM (inactive).
For O=Cc1ccccc1OCCN1CCCC1=O, the AC50 was > 42 µM (inactive).
With CCN(CC1COc2ccccc2O1)C(=S)NCCCN(C)C (stereo not drawn) the AC50 was > 42 µM (inactive).
With CC1(C)Cc2nc3sc4c(OCc5ccccc5)ncnc4c3cc2CO1 the AC50 was > 42 µM (inactive).
With COc1ccc(NC(=O)CSc2nnc(-c3ccccn3)n2-c2ccccc2)cc1OC the AC50 was > 42 µM (inactive).
COC(=O)[C@@H]1C[C@@H]2CC[C@@H](O)C[C@@H]2N1Cc1ccc(N2CCN(C)CC2)cc1 was tested, and the AC50 was > 42 µM (inactive).
Cc1nn(C)c(C)c1-c1c(C#N)c(N)nc2c1CCCCCC2 was tested, and the AC50 was 16.9 µM.
c1coc(C2OCC3(CO2)COC(c2ccco2)OC3)c1 (stereo not drawn) was tested, and the AC50 was > 42 µM (inactive).
In the case of COc1cccc(CN(C)CC2CCCN(CCc3ccc(Cl)cc3)C2)c1OC (stereo not drawn), the AC50 is reported as > 42 µM (inactive).
N/C(=N\OC(=O)CCC1CCCC1)c1ccc([N+](=O)[O-])cc1 was tested, and the AC50 was > 42 µM (inactive).
In the case of COC(=O)c1ccccc1NC(NC(=O)c1ccco1)C(=O)c1ccccc1 (stereo not drawn), the AC50 is reported as > 42 µM (inactive).
COCCNC(=O)NC(=O)CSc1nc(C)c(C)c(C)n1 was tested, and the AC50 was > 42 µM (inactive).
With Cc1ccc(N(CC(=O)NC2CCCC2)C(=O)CCC(=O)Nc2ccccn2)cc1C the AC50 was > 42 µM (inactive).
